{"source": "patent US9453226B2", "about": "“Protection of cells from Alu-RNA-induced degeneration and inhibitors for protecting cells” (UNIVERSITY OF KENTUCKY RESEARCH FOUNDATION, priority 2011, dated 2016)", "key": {"VDAC1": {"test_system": "VDAC1", "assay": "VDAC1 mRNA knockdown in human RPE cells", "type": "cell-based", "details": "compared to control (Luc) siRNA", "excerpt": "(§1) Total RNA was extracted from tissues or cells using Trizol reagent (Invitrogen) according to manufacturer's recommendations, DNase treated and reverse transcribed (QuantiTect, Qiagen). The RT products (cDNA) were amplified by real-time quantitative PCR (Applied Biosystems 7900 HT Fast Real-Time PCR system) with Power SYBR green Master Mix. Oligonucleotide primers specific for human IL1B (forward 5′-[…]-3′ and reverse 5′-[…]-3′), human IL18 (forward 5′-[…]-3′ and reverse 5′-[…]-3′), human NLRP3 (forward 5′-[…]-3′ and reverse 5′-[…]-3′), human PYCARD (forward 5′-[…]-3′ and reverse 5′-[…]-3′), human VDAC1 (forward 5′-[…]-3′ and reverse 5′-[…]-3′), human VDAC2 (forward 5′-[…]-3′ and reverse 5′-[…]-3′), human VDAC3 (forward 5′-[…]-3′ and reverse 5′-[…]-3′), human 18S rRNA (forward 5′-[…]-3′ and reverse 5′-[…]-3′), mouse Myd88 (forward 5′-[…]-3′ and reverse 5′-[…]-3′), mouse Nlrp3 (forward 5′-[…]-3′ and reverse 5′-[…]-3′), mouse Il18 (forward 5′-[…]-3′ and reverse 5′-[…]-3′), and mouse 18S rRNA (forward 5′-[…]-3′ and reverse 5′-[…]-3′) were used. […] For negative controls, no RT products were used as templates in the QPCR and verified by the absence of gel-detected bands. Relative expressions of target genes were determined by the 2^−ΔΔCt method."}, "NLRP3 and IL18 mRNAs": {"test_system": "NLRP3 and IL18 mRNAs", "assay": "NLRP3 and IL18 mRNA in human RPE cells (real-time RT-PCR)", "type": "cell-based", "excerpt": "Transcript abundance was quantified by real-time RT-PCR using an Applied Biosystems 7900 HT Fast Real-Time PCR system by the 2^−ΔΔCt method.\nas §1, with “used. The QPCR cycling conditions were 50° C. for 2 min, 95° C. for 10 min followed by 40 cycles of a two-step amplification program (95° C. for 15 s and 58° C. for 1 min). At the end of the amplification, melting curve analysis was applied using the dissociation protocol from the Sequence Detection system to exclude contamination with unspecific PCR products.” for “used.”"}, "mitochondrial ROS": {"test_system": "mitochondrial ROS", "assay": "Mitochondrial ROS in human RPE cells (MitoSOX Red)", "type": "cell-based", "procedure": "Cellular ROS production was assessed using the ROS-specific probe 2′7′-dichlorodihydrofluorescin diacetate (H2DCFDA, BioChemica, Fluka). Mitochondrial ROS production was assessed using MitoSOX™ Red (Invitrogen). Sub-confluent human RPE cells were transfected with pNull or pAlu. After 24 h cells were loaded for 10 min at 37° C. with 10 μM H2DCFDA or MitoSOX™ Red (Invitrogen) mitochondrial superoxide indicator for live-cell imaging and washed twice with PBS. For H2DCFDA, fluorescence was recorded in 96-well plate using with a Synergy 4 reader (Biotek) using a FITC filter (excitation 485 nm, emission 538 nm). To visualize respiring mitochondria for colocalization with the mitochondrial ROS signal, after PBS wash cells were incubated with MitoTracker Deep Red™ (Invitrogen) for 30 min at 37° C. and then washed twice with PBS. The fluorescent signals were detected using Leica SP-5 or Zeiss Axio Observer Z1 microscopes. Phagosomal ROS production was assessed using the Fc-OXYBURST Green™ assay (Invitrogen). Sub-confluent human RPE cells were transfected with pNull or pAlu, or treated with PMA (0.5 μg/ml; Sigma-Aldrich). […] The total fluorescence from the cells was measured immediately after adding Fc-OXYBURST Green™ with a Synergy 4 reader (Biotek) using FITC filter (excitation 485 nm, emission 538 nm)."}, "RPE": {"test_system": "RPE", "assay": "Alu RNA-induced RPE degeneration in wild-type mice, inhibitors given intravitreously", "type": "in vivo", "details": "subretinal Alu RNA 1 μg; peptide 2 μg intravitreous"}, "VDAC2": {"test_system": "VDAC2", "assay": "VDAC2 mRNA knockdown in human RPE cells", "type": "cell-based", "details": "compared to control (Luc) siRNA", "excerpt": "as §1"}, "VDAC3": {"test_system": "VDAC3", "assay": "VDAC3 mRNA knockdown in human RPE cells", "type": "cell-based", "details": "compared to control (Luc) siRNA", "excerpt": "as §1"}, "Caspase-1": {"molecular_target": "T1, Caspase-1 (Homo sapiens, UniProt P29466)", "T1 construct": "Primary human RPE cells were isolated as previously described; endogenous in cells; host or cells: primary human RPE cells", "T1 sequence (P29466 120-297 limits assumed)": "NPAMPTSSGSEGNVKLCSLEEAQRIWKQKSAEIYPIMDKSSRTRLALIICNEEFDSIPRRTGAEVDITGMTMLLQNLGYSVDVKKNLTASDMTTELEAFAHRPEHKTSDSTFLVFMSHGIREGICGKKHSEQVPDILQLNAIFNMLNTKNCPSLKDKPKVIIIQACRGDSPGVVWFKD", "T1 sequence (P29466 317-404 limits assumed)": "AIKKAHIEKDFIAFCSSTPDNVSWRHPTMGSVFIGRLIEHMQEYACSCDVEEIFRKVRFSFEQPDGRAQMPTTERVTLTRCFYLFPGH", "assay": "Caspase-1 activation in human RPE cells (Western blot p20, Caspalux substrate cleavage)", "type": "cell-based", "details": "compared to control AS", "procedure": "(§2) Protein abundance was assessed by Western blot analysis using antibodies against Caspase-1 (1:500; Invitrogen), pIRAK1 (1:500; Thermo Scientific), pIRAK4 (1:500, Abbomax), PYCARD (1:200, Santa Cruz Biotechnology), NLRP3 (1:500, Enzo Life Sciences) and Vinculin (1:1,000; Sigma-Aldrich). Caspase-1 activity was visualized using Caspalux1 E1D2 (Oncolmmunin) according to manufacturer's instructions.\n(§3) Tissues or cells were homogenized in lysis buffer (10 mM Tris base, pH 7.4, 150 mM NaCl, 1 mM EDTA, 1 mM EGTA, 1% Triton X-100, 0.5% NP-40, protease and phosphatase inhibitor cocktail (Roche)). Protein concentrations were determined using a Bradford assay kit (Bio-Rad) with bovine serum albumin as a standard. Proteins (40-100 μg) were run on NuPAGE Bis-Tris gels (Invitrogen) and transferred to Immun-Blot PVDF membranes (Bio-Rad). Cells were scraped in hot Laemmli buffer (62.5 mM Tris base, pH 6.8, 2% SDS, 5% 2-Mercaptoethanol, 10% Glycerol, 0.01% Bromophenol Blue). Samples were boiled and run on 4-20% NuPAGE Tris-Glycine gels (Invitrogen). The transferred membranes were blocked for 1 h at RT and incubated with antibodies against human Caspase-1 (1:500; Invitrogen), mouse Caspase 1 (1:500; MBL), NLRP3 (1:1000; Enzo Life Sciences), PYCARD (1:1000, RayBiotech), phospho-IRAK1 (S376) (1:500, Thermo Scientific), phospho-IRAK4 (T345) (1:500, AbboMax), DICER1 (1:2,000; Bethyl), MyD88 (1:1,000; Cell Signaling), and mouse IL-18 (1:200; MBL) at 4° C. overnight. Protein loading was assessed by immunoblotting using an anti-Vinculin antibody (1:1,000; Sigma-Aldrich). The secondary antibodies were used (1:5,000) for 1 h at RT. The signal was visualized by enhanced chemiluminescence (ECL plus) and captured by VisionWorksLS Image Acquisition and Analysis software (Version 6.7.2, UVP, LLC).\nCaspase-1 activity. Caspase-1 activity was visualized by incubating cells with Caspalux1E1D2 reagent (Oncolmmunin) according to the manufacturer's instructions. Caspalux1E1D2 signal was quantified reading the fluorescence (excitation 552 nm, emission 580 nm) using a Synergy 4 reader (Biotek). Quantification of fluorescence from images was performed by converting images into grayscale in Adobe Photoshop CSS, and measuring the integrated density of black and white images using ImageJ software (NIH) (Bogdanovich et al., 2008)."}, "IRAK1/4 phosphorylation": {"test_system": "IRAK1/4 phosphorylation", "assay": "IRAK1/4 phosphorylation in human RPE cells (Western blot)", "type": "cell-based", "details": "human RPE cells treated with DICER1 antisense", "procedure": "as §2, §3"}, "DICER1": {"test_system": "DICER1", "assay": "DICER1 abundance after antisense treatment of human RPE cells", "type": "cell-based", "procedure": "as §3"}, "PYCARD": {"test_system": "PYCARD", "assay": "PYCARD knockdown in human RPE cells", "type": "cell-based", "details": "compared to control siRNAs", "procedure": "as §3"}, "human RPE cells": {"test_system": "human RPE cells", "details": "human RPE cells transfected with pAlu", "procedure": "All cell cultures were maintained at 37° C. and 5% CO2. Primary mouse RPE cells were isolated as previously described (Yang et al., 2009) and grown in Dulbecco Modified Eagle Medium (DMEM) supplemented with 20% FBS and standard antibiotics concentrations. Primary human RPE cells were isolated as previously described (Yang et al., 2008) and maintained in DMEM supplemented with 10% FBS and antibiotics. HeLa cells were maintained in DMEM supplemented with 20% FBS and standard antibiotics concentrations. THP-1 cells were cultured in RPMI 1640 medium supplemented with 10% FBS and antibiotics.\nMTS assays were performed using the CellTiter 96 AQueous One Solution Cell Proliferation Assay (Promega) according to the manufacturer's instructions. For examining the cytoprotective effect of glycine in Alu RNA induced cell death, human RPE cells were transfected with pNull/pAlu. At 6 h post-transfection the cells were incubated with complete media containing glycine (5 mM) or vehicle, and cell viability was assessed after 24 h. Similarly, human RPE cells primed with LPS (5 μg/ml for 6 h) were treated with ATP (25 μM) in the presence of glycine containing media (5 mM). 30 min post ATP cell viability was assessed as described above.\nMTS assays were performed using the CellTiter 96 AQueous One Solution Cell Proliferation Assay (Promega) according to the manufacturer's instructions."}, "NLRP3": {"test_system": "NLRP3", "assay": "NLRP3 knockdown in HEK293 cells transfected with an NLRP3 expression vector", "type": "cell-based", "details": "compared to control siRNAs", "procedure": "as §3"}}, "note": "Entries after “also recorded” stand apart in the source; their conditions may differ. d = 2'-deoxy (DNA); r = 2'-OH (RNA)", "data": [{"substance": "5′-CGGAAUAGCAGCCAAGUdTdT-3′ [VDAC1 siRNA]", "values": [{"measurement": "abundance of VDAC1 mRNA", "setting": "VDAC1", "result": "reduced"}, {"measurement": "pAlu-induced NLRP3 and IL18 mRNA upregulation", "setting": "NLRP3 and IL18 mRNAs", "result": "prevent; also recorded: impaired"}, {"measurement": "pAlu-induced mitochondrial ROS generation", "setting": "mitochondrial ROS", "result": "prevent; also recorded: impaired"}]}, {"substance": "DRQIKIWFQNRRMKWKKRDVLPGTCVWSIASE", "values": [{"measurement": "Alu RNA-induced RPE degeneration", "setting": "RPE", "result": "blocked"}]}, {"substance": "5′-CCCUGGAGUUGGAGGCUdTdT-3′ [VDAC2 siRNA]", "values": [{"measurement": "pAlu-induced NLRP3 and IL18 mRNA upregulation", "setting": "NLRP3 and IL18 mRNAs", "result": "prevent; also recorded: impaired"}, {"measurement": "abundance of VDAC2 mRNA", "setting": "VDAC2", "result": "reduced"}, {"measurement": "pAlu-induced mitochondrial ROS generation", "setting": "mitochondrial ROS", "result": "prevent; also recorded: impaired"}]}, {"substance": "5′-GCUUUAAUCGAUGGGAAdTdT-3′ [VDAC3 siRNA]", "values": [{"measurement": "abundance of VDAC3 mRNA", "setting": "VDAC3", "result": "reduced"}]}, {"substance": "5′-GCUGACCTTTTTGCTUCUCA-3′ [DICER1 AS]", "values": [{"measurement": "cleavage activity of Caspase-1 (Caspalux)", "setting": "Caspase-1", "result": "increases cleavage activity of Caspase-1"}, {"measurement": "IRAK1 and IRAK4 phosphorylation", "setting": "IRAK1/4 phosphorylation", "result": "increases IRAK1 and IRAK4 phosphorylation"}, {"measurement": "DICER1 abundance", "setting": "DICER1", "result": "reduces DICER1"}]}, {"substance": "5′-GAAGCUCUUCAGUUUCAdTdT-3′ (GAAGCUCUUCAGUUUCATT; siRNA; sugars from the 5' end r17 d2, backbone not given here) [PYCARD siRNA]", "values": [{"measurement": "abundance of PYCARD", "setting": "PYCARD", "result": "reduced"}, {"measurement": "pAlu-induced human RPE cell death / loss of cell viability", "setting": "human RPE cells", "result": "rescued"}]}, {"substance": "5′-GUUUGACUAUCUGUUCUdTdT-3′ (GUUUGACUAUCUGUUCUTT; siRNA; sugars from the 5' end r17 d2, backbone not given here) [NLRP3 siRNA]", "values": [{"measurement": "abundance of NLRP3", "setting": "NLRP3", "result": "reduced"}, {"measurement": "pAlu-induced human RPE cell death / loss of cell viability", "setting": "human RPE cells", "result": "rescued"}]}]}
